Experimental data published in PubChem BioAssay (NCI).
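Values below derive from 48-hour exposures of cells grown in 96-well plates, with endpoints linearly interpolated between the two concentrations bracketing the appropriate inhibition level. GI50: concentration for 50% inhibition of growth. The concentration for full growth arrest is given as TGI.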

Tests used:
Assay in all cases: NCI tumour cell line growth inhibition, 48 h
SK-MEL-28 melanoma = tested on: SK-MEL-28 melanoma
OVCAR-5 ovarian = tested on: OVCAR-5 ovarian
HOP-92 NSCLC = tested on: HOP-92 NSCLC
A498 renal = tested on: A498 renal
HT29 colon = tested on: HT29 colon
HS 578T breast = tested on: HS 578T breast
CAKI-1 renal = tested on: CAKI-1 renal
A549 NSCLC = tested on: A549 NSCLC
SK-MEL-2 melanoma = tested on: SK-MEL-2 melanoma
COLO 205 colon = tested on: COLO 205 colon
SW-620 colon = tested on: SW-620 colon
MDA-MB-231 breast = tested on: MDA-MB-231 breast
HCC-2998 colon = tested on: HCC-2998 colon
UO-31 renal = tested on: UO-31 renal
EKVX NSCLC = tested on: EKVX NSCLC
786-0 renal = tested on: 786-0 renal
M14 melanoma = tested on: M14 melanoma
NCI/ADR-RES ovarian = tested on: NCI/ADR-RES ovarian
SNB-75 CNS = tested on: SNB-75 CNS
MOLT-4 leukemia = tested on: MOLT-4 leukemia
PC-3 prostate = tested on: PC-3 prostate
OVCAR-3 ovarian = tested on: OVCAR-3 ovarian
IGROV1 ovarian = tested on: IGROV1 ovarian
KM12 colon = tested on: KM12 colon
NCI-H522 lung = tested on: NCI-H522 lung
NCI-H460 lung = tested on: NCI-H460 lung
CCRF-CEM leukemia = tested on: CCRF-CEM leukemia
HCT-15 colon = tested on: HCT-15 colon
RXF 393 renal = tested on: RXF 393 renal
LOX IMVI melanoma = tested on: LOX IMVI melanoma
NCI-H226 lung = tested on: NCI-H226 lung
ACHN renal = tested on: ACHN renal
SF-295 CNS = tested on: SF-295 CNS
BT-549 breast = tested on: BT-549 breast
SK-OV-3 ovarian = tested on: SK-OV-3 ovarian
SN12C renal = tested on: SN12C renal
SNB-19 CNS = tested on: SNB-19 CNS
RPMI-8226 leukemia = tested on: RPMI-8226 leukemia
MALME-3M melanoma = tested on: MALME-3M melanoma
DU-145 prostate = tested on: DU-145 prostate
OVCAR-8 ovarian = tested on: OVCAR-8 ovarian
SR leukemia = tested on: SR leukemia
TK-10 renal = tested on: TK-10 renal
T-47D breast = tested on: T-47D breast
SF-539 CNS = tested on: SF-539 CNS
MDA-MB-435 = tested on: MDA-MB-435
SF-268 CNS = tested on: SF-268 CNS
NCI-H23 lung = tested on: NCI-H23 lung
OVCAR-4 ovarian = tested on: OVCAR-4 ovarian
K-562 leukemia = tested on: K-562 leukemia
MCF7 breast = tested on: MCF7 breast
HOP-62 NSCLC = tested on: HOP-62 NSCLC
UACC-62 melanoma = tested on: UACC-62 melanoma
SK-MEL-5 melanoma = tested on: SK-MEL-5 melanoma
UACC-257 melanoma = tested on: UACC-257 melanoma
HL-60(TB) leukemia = tested on: HL-60(TB) leukemia
MDA-MB-468 breast = tested on: MDA-MB-468 breast
U251 CNS = tested on: U251 CNS
HCT-116 colon = tested on: HCT-116 colon

## CC1=C2C(=C[C@@](C)(COP(=O)(Oc3ccccc3)Oc3ccccc3)[C@@H]2O)C(=O)[C@@](C)(O)C12CC2
SK-MEL-28 melanoma
  GI50: 681 nM
  TGI: 1690 nM
OVCAR-5 ovarian
  GI50: 359 nM
  TGI: 1340 nM
HOP-92 NSCLC
  GI50: 574 nM
  TGI: 1580 nM
A498 renal
  GI50: 1150 nM
  TGI: 4090 nM
HT29 colon
  GI50: 201 nM
  TGI: 705 nM
HS 578T breast
  GI50: 1010 nM
  TGI: 4460 nM
CAKI-1 renal
  GI50: 289 nM
  TGI: 2170 nM
A549 NSCLC
  GI50: 781 nM
  TGI: 3290 nM
SK-MEL-2 melanoma
  GI50: 246 nM
  TGI: 596 nM
COLO 205 colon
  GI50: 530 nM
  TGI: 1200 nM
SW-620 colon
  GI50: 1700 nM
  TGI: 18300 nM
MDA-MB-231 breast
  GI50: 351 nM
  TGI: 1030 nM
HCC-2998 colon
  GI50: 216 nM
  TGI: 639 nM
UO-31 renal
  GI50: 460 nM
  TGI: 1270 nM
EKVX NSCLC
  GI50: 641 nM
  TGI: 1800 nM
786-0 renal
  GI50: 284 nM
  TGI: 857 nM
M14 melanoma
  GI50: 551 nM
  TGI: 1310 nM
NCI/ADR-RES ovarian
  GI50: 236 nM
  TGI: 778 nM
SNB-75 CNS
  GI50: 477 nM
  TGI: 1270 nM
MOLT-4 leukemia
  GI50: 439 nM
  TGI: 14600 nM
PC-3 prostate
  GI50: 397 nM
  TGI: 2340 nM
OVCAR-3 ovarian
  GI50: 286 nM
  TGI: 1080 nM
IGROV1 ovarian
  GI50: 399 nM
  TGI: 1240 nM
KM12 colon
  GI50: 628 nM
  TGI: 5820 nM
NCI-H522 lung
  GI50: 223 nM
  TGI: 655 nM
NCI-H460 lung
  GI50: 234 nM
  TGI: 744 nM
CCRF-CEM leukemia
  GI50: 1880 nM
  TGI: > 39800 nM
HCT-15 colon
  GI50: 208 nM
  TGI: 875 nM
RXF 393 renal
  GI50: 188 nM
  TGI: 493 nM
LOX IMVI melanoma
  GI50: 218 nM
  TGI: 703 nM
NCI-H226 lung
  GI50: 723 nM
  TGI: 3840 nM
ACHN renal
  GI50: 232 nM
  TGI: 686 nM
SF-295 CNS
  GI50: 294 nM
  TGI: 1230 nM
BT-549 breast
  GI50: 211 nM
  TGI: 614 nM
SK-OV-3 ovarian
  GI50: 357 nM
  TGI: 1310 nM
SN12C renal
  GI50: 521 nM
  TGI: 1550 nM
SNB-19 CNS
  GI50: 630 nM
  TGI: 4930 nM
RPMI-8226 leukemia
  GI50: 4560 nM
  TGI: 38900 nM
MALME-3M melanoma
  GI50: 382 nM
  TGI: 1000 nM
DU-145 prostate
  GI50: 332 nM
  TGI: 1340 nM
OVCAR-8 ovarian
  GI50: 286 nM
  TGI: 1090 nM
SR leukemia
  GI50: 402 nM
  TGI: 25100 nM
TK-10 renal
  GI50: 854 nM
  TGI: 3090 nM
T-47D breast
  GI50: 946 nM
  TGI: 5190 nM
SF-539 CNS
  GI50: 327 nM
  TGI: 886 nM
MDA-MB-435
  GI50: 637 nM
  TGI: 2060 nM
SF-268 CNS
  GI50: 350 nM
  TGI: 1500 nM
NCI-H23 lung
  GI50: 158 nM
  TGI: 384 nM
OVCAR-4 ovarian
  GI50: 355 nM
  TGI: 1470 nM
K-562 leukemia
  GI50: 1560 nM
  TGI: > 69500 nM
MCF7 breast
  GI50: 141 nM
  TGI: 4690 nM
HOP-62 NSCLC
  GI50: 408 nM
  TGI: 1280 nM
UACC-62 melanoma
  GI50: 312 nM
  TGI: 804 nM
SK-MEL-5 melanoma
  GI50: 219 nM
  TGI: 609 nM
UACC-257 melanoma
  GI50: 792 nM
  TGI: 2310 nM
HL-60(TB) leukemia
  GI50: 213 nM
  TGI: 1280 nM
MDA-MB-468 breast
  GI50: 147 nM
  TGI: 503 nM
U251 CNS
  GI50: 249 nM
  TGI: 1360 nM

## CN(C)c1nc(NCCNS(=O)(=O)c2ccc(C3=Nc4c(N)nc(N)nc4NC(c4ccccc4)C3)cc2)nc(Nc2ccc(F)cc2)n1 (stereo not given)
SK-MEL-28 melanoma
  GI50: > 100000 nM
  TGI: > 100000 nM
OVCAR-5 ovarian
  GI50: > 100000 nM
  TGI: > 100000 nM
HOP-92 NSCLC
  GI50: 2180 nM
  TGI: 9960 nM
HT29 colon
  GI50: 5320 nM
  TGI: > 100000 nM
HS 578T breast
  GI50: 6430 nM
  TGI: > 100000 nM
CAKI-1 renal
  GI50: 9730 nM
  TGI: > 100000 nM
A549 NSCLC
  GI50: > 100000 nM
  TGI: > 100000 nM
SK-MEL-2 melanoma
  GI50: 28500 nM
  TGI: > 100000 nM
COLO 205 colon
  GI50: 16400 nM
  TGI: > 100000 nM
SW-620 colon
  GI50: 40400 nM
  TGI: > 100000 nM
MDA-MB-231 breast
  GI50: 6160 nM
  TGI: 67500 nM
HCC-2998 colon
  GI50: 11700 nM
  TGI: > 100000 nM
UO-31 renal
  GI50: > 100000 nM
  TGI: > 100000 nM
EKVX NSCLC
  GI50: 6650 nM
  TGI: > 100000 nM
786-0 renal
  GI50: 7880 nM
  TGI: > 100000 nM
M14 melanoma
  GI50: 24400 nM
  TGI: > 100000 nM
NCI/ADR-RES ovarian
  GI50: > 100000 nM
  TGI: > 100000 nM
SNB-75 CNS
  GI50: 3580 nM
  TGI: > 100000 nM
MOLT-4 leukemia
  GI50: 3110 nM
  TGI: > 100000 nM
PC-3 prostate
  GI50: 3840 nM
  TGI: > 100000 nM
OVCAR-3 ovarian
  GI50: 69300 nM
  TGI: > 100000 nM
IGROV1 ovarian
  GI50: 5760 nM
  TGI: > 100000 nM
KM12 colon
  GI50: 8800 nM
  TGI: > 100000 nM
NCI-H522 lung
  GI50: 77400 nM
  TGI: > 100000 nM
NCI-H460 lung
  GI50: 6490 nM
  TGI: > 100000 nM
CCRF-CEM leukemia
  GI50: 4020 nM
  TGI: > 100000 nM
HCT-15 colon
  GI50: > 100000 nM
  TGI: > 100000 nM
RXF 393 renal
  GI50: 2550 nM
  TGI: 8950 nM
LOX IMVI melanoma
  GI50: 9960 nM
  TGI: 25700 nM
HCT-116 colon
  GI50: 7370 nM
  TGI: > 100000 nM
NCI-H226 lung
  GI50: > 100000 nM
  TGI: > 100000 nM
ACHN renal
  GI50: > 100000 nM
  TGI: > 100000 nM
SF-295 CNS
  GI50: 9500 nM
  TGI: > 100000 nM
BT-549 breast
  GI50: 8820 nM
  TGI: > 100000 nM
SK-OV-3 ovarian
  GI50: > 100000 nM
  TGI: > 100000 nM
SN12C renal
  GI50: 7830 nM
  TGI: > 100000 nM
SNB-19 CNS
  GI50: 21800 nM
  TGI: > 100000 nM
RPMI-8226 leukemia
  GI50: 3320 nM
  TGI: > 100000 nM
MALME-3M melanoma
  GI50: 7340 nM
  TGI: > 100000 nM
DU-145 prostate
  GI50: > 100000 nM
  TGI: > 100000 nM
OVCAR-8 ovarian
  GI50: 61400 nM
  TGI: > 100000 nM
TK-10 renal
  GI50: > 100000 nM
  TGI: > 100000 nM
T-47D breast
  GI50: 5120 nM
  TGI: > 100000 nM
SF-539 CNS
  GI50: 12000 nM
  TGI: 63800 nM
MDA-MB-435
  GI50: 15000 nM
  TGI: > 100000 nM
SF-268 CNS
  GI50: 9850 nM
  TGI: > 100000 nM
NCI-H23 lung
  GI50: > 100000 nM
  TGI: > 100000 nM
OVCAR-4 ovarian
  GI50: 74600 nM
  TGI: > 100000 nM
K-562 leukemia
  GI50: 4330 nM
  TGI: > 100000 nM
MCF7 breast
  GI50: 3850 nM
  TGI: 85500 nM
HOP-62 NSCLC
  GI50: 99700 nM
  TGI: > 100000 nM
UACC-62 melanoma
  GI50: 31500 nM
  TGI: > 100000 nM
SK-MEL-5 melanoma
  GI50: 5810 nM
  TGI: 20500 nM
UACC-257 melanoma
  GI50: 87200 nM
  TGI: > 100000 nM
HL-60(TB) leukemia
  GI50: 4240 nM
  TGI: > 100000 nM
MDA-MB-468 breast
  GI50: 3370 nM
  TGI: 13700 nM
U251 CNS
  GI50: 18400 nM
  TGI: > 100000 nM
